Assay results from ChEMBL document CHEMBL4316596, “Antimicrobial Peptides with High Proteolytic Resistance for Combating Gram-Negative Bacteria” (J Med Chem, 2019).
Active and inactive are the calls of the source. The rule behind the calls is not given here.

Assays:
Escherichia coli [1] = assay: Bactericidal activity against Escherichia coli ATCC 25922 incubated for 4 hrs followed by culture spread on agar plates and cultured overnight in presence of 0.125 mg/ml trypsin; format: functional; conditions: ATCC 25922, 4 h, read-out: MBC>99.9
Pseudomonas aeruginosa [2] = assay: Bactericidal activity against Pseudomonas aeruginosa ATCC 27853 incubated for 4 hrs followed by culture spread on agar plates and cultured overnight; format: functional; conditions: ATCC 27853, 4 h, read-out: MBC>99.9
Escherichia coli [3] = assay: Bactericidal activity against Escherichia coli ATCC 25922 incubated for 4 hrs followed by culture spread on agar plates and cultured overnight in presence of 2 mg/ml chymotrypsin; format: functional; conditions: ATCC 25922, 4 h, read-out: MBC>99.9
Pseudomonas aeruginosa [4] = assay: Bactericidal activity against Pseudomonas aeruginosa 25349 clinical isolates incubated for 4 hrs followed by culture spread on agar plates and cultured overnight; format: functional; conditions: Pseudomonas aeruginosa, 25349, 4 h; read-out: MBC>99.9
[5] = Selectivity ratio of HC10 for human RBC to geometric mean of the peptide MBC for bacteria
Escherichia coli [6] = assay: Bactericidal activity against Escherichia coli ATCC 25922 incubated for 4 hrs followed by culture spread on agar plates and cultured overnight in presence of 4 mg/ml chymotrypsin; format: functional; conditions: ATCC 25922, 4 h, read-out: MBC>99.9
[7] = Selectivity ratio of IC50 for HEK293T cells to geometric mean of the peptide MBC for bacteria
Escherichia coli [8] = assay: Bactericidal activity against Escherichia coli ATCC 25922 incubated for 4 hrs followed by culture spread on agar plates and cultured overnight in presence of KCl; format: functional; conditions: ATCC 25922, 4 h, read-out: MBC>99.9
Escherichia coli [9] = assay: Bactericidal activity against Escherichia coli ATCC 25922 incubated for 4 hrs followed by culture spread on agar plates and cultured overnight in presence of 4 mg/ml trypsin; format: functional; conditions: ATCC 25922, 4 h, read-out: MBC>99.9
Escherichia coli [10] = assay: Bactericidal activity against Escherichia coli 078 incubated for 4 hrs followed by culture spread on agar plates and cultured overnight; format: functional; conditions: Escherichia coli, 078, 4 h; read-out: MBC>99.9
[11] = Cytotoxicity against IPECJ2 cells assessed as cell death after 18 to 24 hrs by MTT assay; format: cell-based; conditions: Sus scrofa, IPEC-J2
Acinetobacter baumannii = assay: Bactericidal activity against Acinetobacter baumannii incubated for 4 hrs followed by culture spread on agar plates and cultured overnight; format: functional; conditions: read-out: MBC>99.9
HEK-293T = assay: Cytotoxicity against HEK293T cells assessed as cell death after 18 to 24 hrs by MTT assay; format: cell-based; conditions: Homo sapiens
Escherichia coli [12] = assay: Antimicrobial activity against Escherichia coli 078 after 24 hrs by NCCLS-protocol based assay; format: functional; conditions: Escherichia coli, 078, 24 h
Salmonella typhimurium = assay: Bactericidal activity against Salmonella typhimurium ATCC 14028 incubated for 4 hrs followed by culture spread on agar plates and cultured overnight; format: functional, Salmonella enterica subsp. enterica serovar Typhimurium; conditions: Salmonella enterica, ATCC 14028, 4 h; read-out: MBC>99.9
RAW264.7 = assay: Cytotoxicity against mouse RAW264.7 cells assessed as cell death after 18 to 24 hrs by MTT assay; format: cell-based
Escherichia coli [13] = assay: Antimicrobial activity against Escherichia coli ATCC 25922 after 24 hrs by NCCLS-protocol based assay; format: functional; conditions: ATCC 25922, 24 h
Pseudomonas aeruginosa [14] = assay: Bactericidal activity against Pseudomonas aeruginosa CICC 21625 clinical isolates incubated for 4 hrs followed by culture spread on agar plates and cultured overnight; format: functional; conditions: CICC 21625, 4 h, read-out: MBC>99.9
[15] = Bactericidal activity against Salmonella pullorum C7913 incubated for 4 hrs followed by culture spread on agar plates and cultured overnight; format: functional, Salmonella enterica subsp. enterica serovar Pullorum; conditions: Salmonella enterica, C7913, 4 h; read-out: MBC>99.9
Escherichia coli [16] = assay: Bactericidal activity against Escherichia coli ATCC 25922 incubated for 4 hrs followed by culture spread on agar plates and cultured overnight in presence of 0.5 mg/ml chymotrypsin; format: functional; conditions: ATCC 25922, 4 h, read-out: MBC>99.9
Escherichia coli [17] = assay: Bactericidal activity against Escherichia coli ATCC 25922 incubated for 4 hrs followed by culture spread on agar plates and cultured overnight in presence of 12.5% serum albumin; format: functional; conditions: ATCC 25922, 4 h, read-out: MBC>99.9
Escherichia coli [18] = assay: Antimicrobial activity against Escherichia coli UB1005 after 24 hrs by NCCLS-protocol based assay; format: functional; conditions: UB1005, 24 h
Pseudomonas aeruginosa [19] = assay: Bactericidal activity against Pseudomonas aeruginosa 26305 clinical isolates incubated for 4 hrs followed by culture spread on agar plates and cultured overnight; format: functional; conditions: Pseudomonas aeruginosa, 26305, 4 h; read-out: MBC>99.9
Escherichia coli [20] = assay: Bactericidal activity against Escherichia coli ATCC 25922 incubated for 4 hrs followed by culture spread on agar plates and cultured overnight in presence of 2 mg/ml trypsin; format: functional; conditions: ATCC 25922, 4 h, read-out: MBC>99.9
Escherichia coli [21] = assay: Bactericidal activity against Escherichia coli ATCC 25922 incubated for 4 hrs followed by culture spread on agar plates and cultured overnight in presence of NaCl; format: functional; conditions: ATCC 25922, 4 h, read-out: MBC>99.9
Escherichia coli [22] = assay: Bactericidal activity against Escherichia coli ATCC 25922 incubated for 4 hrs followed by culture spread on agar plates and cultured overnight in presence of 25% serum albumin; format: functional; conditions: ATCC 25922, 4 h, read-out: MBC>99.9
Pseudomonas aeruginosa [23] = assay: Antimicrobial activity against Pseudomonas aeruginosa ATCC 27853 after 24 hrs by NCCLS-protocol based assay; format: functional; conditions: ATCC 27853, 24 h
Escherichia coli [24] = assay: Bactericidal activity against Escherichia coli ATCC 25922 incubated for 4 hrs followed by culture spread on agar plates and cultured overnight in presence of 50% serum albumin; format: functional; conditions: ATCC 25922, 4 h, read-out: MBC>99.9
Pseudomonas aeruginosa [25] = assay: Antimicrobial activity against Pseudomonas aeruginosa PAO1 after 24 hrs by NCCLS-protocol based assay; format: functional; conditions: PAO1, 24 h
Escherichia coli [26] = assay: Bactericidal activity against Escherichia coli ATCC 25922 incubated for 4 hrs followed by culture spread on agar plates and cultured overnight in presence of 0.25 mg/ml trypsin; format: functional; conditions: ATCC 25922, 4 h, read-out: MBC>99.9
[27] = Antimicrobial activity against Salmonella pullorum C7913 after 24 hrs by NCCLS-protocol based assay; format: functional, Salmonella enterica subsp. enterica serovar Pullorum; conditions: Salmonella enterica, C7913, 24 h
Pseudomonas aeruginosa [28] = assay: Antimicrobial activity against Pseudomonas aeruginosa CICC 21625 clinical isolates after 24 hrs by NCCLS-protocol based assay; format: functional; conditions: CICC 21625, 24 h
Trypsin = Trypsin (Homo sapiens, UniProt P07477+P07478+P35030); assay: Stability of the compound assessed as trypsin (unknown origin)-mediated compound hydrolysis after 8 hrs by SDS-PAGE analysis; format: ADME, protein assay
Klebsiella pneumoniae = assay: Antimicrobial activity against Klebsiella pneumoniae after 24 hrs by NCCLS-protocol based assay; format: functional
Escherichia coli [29] = assay: Bactericidal activity against Escherichia coli ATCC 25922 incubated for 4 hrs followed by culture spread on agar plates and cultured overnight in presence of 1 mg/ml chymotrypsin; format: functional; conditions: ATCC 25922, 4 h, read-out: MBC>99.9
Escherichia coli [30] = assay: Bactericidal activity against Escherichia coli ATCC 25922 incubated for 4 hrs followed by culture spread on agar plates and cultured overnight in presence of ZnCl2; format: functional; conditions: ATCC 25922, 4 h, read-out: MBC>99.9
Escherichia coli [31] = assay: Antibacterial activity against Escherichia coli ATCC 25922 infected in ICR mouse assessed as mouse survival at 5 mg/kg, ip dosed at 0.5, 2, 4 and 8 hrs post-infection; format: functional; conditions: ATCC 25922, ip
Escherichia coli [32] = assay: Antibacterial activity against Escherichia coli ATCC 25922 infected in ICR mouse assessed as log reduction in bacterial cells in peritoneal cavity at 5 mg/kg, ip administered at 5 mg/kg, ip dosed at 0.5, 2, 4 and 8 hrs post-infection; format: functional
Pseudomonas aeruginosa [33] = assay: Antimicrobial activity against Pseudomonas aeruginosa ATCC 27853 at sub-MBC after 60 passages; format: functional, organism-based

Substance | MBC (Escherichia coli [1]) [µM] | MBC (Pseudomonas aeruginosa [2]) [µM] | MBC (Escherichia coli [3]) [µM] | MBC (Pseudomonas aeruginosa [4]) [µM] | Ratio [5] | MBC (Escherichia coli [6]) [µM] | Ratio [7] | MBC (Escherichia coli [8]) [µM] | MBC (Escherichia coli [9]) [µM] | MBC (Escherichia coli [10]) [µM] | IC50 [11] [µM] | MBC (Acinetobacter baumannii) [µM] | IC50 (HEK-293T) [µM] | MIC95 (Escherichia coli [12]) [µM] | MBC (Salmonella typhimurium) [µM] | IC50 (RAW264.7) [µM] | MIC95 (Escherichia coli [13]) [µM] | MBC (Pseudomonas aeruginosa [14]) [µM] | MBC [15] [µM] | MBC (Escherichia coli [16]) [µM] | also measured
H-IKPIIKPIIKPIIKPIIKPIIKPIIKPI-NH2 | 16 | > 64 | 16 | > 64 | 7.03 | 16 | 162.49 | 32 | 16 | 16 | 345 | 2 | 5920 | 16 | > 64 | 2750 | 8 | > 64 | > 64 | 16 | MBC (Escherichia coli [17]): > 128 µM; MIC95 (Escherichia coli [18]): 4 µM; MBC (Pseudomonas aeruginosa [19]): > 64 µM; MBC (Escherichia coli [20]): 16 µM; MBC (Escherichia coli [21]): > 128 µM; MBC (Escherichia coli [22]): > 128 µM; MIC95 (Pseudomonas aeruginosa [23]): > 64 µM; MBC (Escherichia coli [24]): > 128 µM; MIC95 (Pseudomonas aeruginosa [25]): > 64 µM; MBC (Escherichia coli [26]): 16 µM; MIC95 [27]: 64 µM; MIC95 (Pseudomonas aeruginosa [28]): > 64 µM; Stability (Trypsin): Stable; MIC95 (Klebsiella pneumoniae): 16 µM; MBC (Escherichia coli [29]): 16 µM; MBC (Escherichia coli [30]): 32 µM
H-LKPLLKPLLKPLLKPLLKPLLKPLLKPL-NH2 | 1 | 2 | 1 | 8 | 94.5 | > 64 | 17.49 | 1 | 1 | 2 | 24.4 | 1 | 47.4 | 2 | 2 | 1.56 | 0.5 | 16 | 4 | 1 | survival at 5 mg/kg (Escherichia coli [31]): 37.5%; log(activity) (Escherichia coli [32]): 1; Activity (Pseudomonas aeruginosa [33]): Active; MBC (Escherichia coli [17]): 2 µM; MIC95 (Escherichia coli [18]): 1 µM; MBC (Pseudomonas aeruginosa [19]): 16 µM; MBC (Escherichia coli [20]): 1 µM; MBC (Escherichia coli [21]): 8 µM; MBC (Escherichia coli [22]): 8 µM; MIC95 (Pseudomonas aeruginosa [23]): 2 µM; MBC (Escherichia coli [24]): 64 µM; MIC95 (Pseudomonas aeruginosa [25]): 1 µM; MBC (Escherichia coli [26]): 1 µM; MIC95 [27]: 2 µM; MIC95 (Pseudomonas aeruginosa [28]): 8 µM; Stability (Trypsin): Stable; MIC95 (Klebsiella pneumoniae): 1 µM; MBC (Escherichia coli [29]): 1 µM; MBC (Escherichia coli [30]): 1 µM
H-IRPIIRPIIRPIIRPIIRPIIRPIIRPI-NH2 | 2 | 8 | 2 | 32 | 51.5 | 2 | 65.19 | 2 | 2 | 1 | 126 | 1 | 324 | 1 | 2 | 5650 | 1 | 64 | 4 | 2 | survival at 5 mg/kg (Escherichia coli [31]): 75%; log(activity) (Escherichia coli [32]): 5; Activity (Pseudomonas aeruginosa [33]): Active; MBC (Escherichia coli [17]): 8 µM; MIC95 (Escherichia coli [18]): 2 µM; MBC (Pseudomonas aeruginosa [19]): 64 µM; MBC (Escherichia coli [20]): 2 µM; MBC (Escherichia coli [21]): 8 µM; MBC (Escherichia coli [22]): 8 µM; MIC95 (Pseudomonas aeruginosa [23]): 4 µM; MBC (Escherichia coli [24]): 16 µM; MIC95 (Pseudomonas aeruginosa [25]): 4 µM; MBC (Escherichia coli [26]): 2 µM; MIC95 [27]: 2 µM; MIC95 (Pseudomonas aeruginosa [28]): 64 µM; Stability (Trypsin): Stable; MIC95 (Klebsiella pneumoniae): 2 µM; MBC (Escherichia coli [29]): 2 µM; MBC (Escherichia coli [30]): 2 µM
